Results reported in patent US12594256B2, “A19-144, A2-73 and certain anticholinesterase inhibitor compositions and method for anti-seizure therapy” (priority 2014, dated 2026).
Like-named read-outs stand apart in the source and are kept apart here.

How the values were obtained:
[1] = tested on: Aβ25-35-induced toxicity; settings: cited from earlier work
[2] = tested on: seizures; test: Seizure prophylaxis in single subjects (Examples 1-6); format: in vivo, human
Procedure: A person is experiencing 4 to 7 seizures per day with a baseline of 6.6 seizures per day. A19-144 is administered daily at 2.0 mg for 5 days.
The subject is administered low dose donepezil (4 mg daily) for 5 days cotimely with continued A19-144 administration daily at 2.0 mg for 5 days.
A person is experiencing 6 to 8 seizures per day with a baseline of 6.6 seizures per day. A19-144 is administered daily at 2.0 mg for 5 days.
The subject is administered low dose Eslicarbazepine acetate at 600 mg/day; for 5 days cotimely with continued A19-144 administration daily at 2.0 mg for 5 days.
A person is experiencing seizures 3.2 per day. The subject is administered lacosamide at 60 mg two times per day for 5 days and cotimely administration of A19-144 daily at 2.0 mg for 5 days.
The person is experiencing an average of 3.3 seizures per day. The subject is administered Levetiracetam at 400 mg two times per day for 5 days and cotimely administration of 3.0 mg of A19-144 daily for 5 days.

[3] = tested on: sodium channel site 2; settings: screening profile; cited from earlier work
[4] = biological target: NMDA receptors; settings: screening profile; cited from earlier work
[5] = biological target: σ1 (Homo sapiens, UniProt Q99720); settings: as compared with σ1 sites (so in the source); cited from earlier work
[6] = Pharmacokinetics of metabolite AV19-144 in plasma after oral AV2-73 (LC-MS/MS); format: in vivo; settings: for MRT: read-out: mean residence time of AV19-144
Procedure: After separation from human plasma analytes were injected into a LC-MS/MS. […] A weighted (1/x) regression 2nd order was performed to determine the concentration of the analytes. The study was conducted in accordance with the Principles of Good Laboratory Practice (GLP) as described under § 19, German Chemical Law. The validation based on the EG-Dok.

[7] = biological target: muscarinic M1-M4 receptors; settings: screening profile; cited from earlier work
[8] = tested on: Aβ25-35-induced toxicity; test: Aβ25-35 model, pre- and post-peptide administration schedules (Y maze, passive avoidance, hippocampal lipid peroxidation); format: in vivo, mice; settings: for anti-amnesic and neuroprotective effect against amyloid toxicity: drug administered before or after the amyloid peptide challenge
[9] = biological target: σ2 sites (Homo sapiens, UniProt Q5BJF2); settings: reported binding analyses; cited from earlier work
[10] = biological target: sigma-1 receptors (Homo sapiens, UniProt Q99720); settings: believed to bind; cited from earlier work
[11] = tested on: muscarinic acetylcholine receptors; settings: believed to bind; cited from earlier work
[12] = 0.3 mg/kg ip once a day, day 7 to day 13 after Aβ25-35, measured 14 days after Aβ25-35
[13] = 0.1 or 0.3 mg/kg ip once a day, day -7 to day -1 before Aβ25-35, 7 days after Aβ25-35

Chain of σ2 sites (Q5BJF2 whole entry): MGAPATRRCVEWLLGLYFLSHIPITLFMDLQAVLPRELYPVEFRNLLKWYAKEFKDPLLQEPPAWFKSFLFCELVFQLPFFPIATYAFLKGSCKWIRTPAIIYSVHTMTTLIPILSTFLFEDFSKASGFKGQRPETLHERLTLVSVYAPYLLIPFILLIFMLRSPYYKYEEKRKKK
Chain of sigma-1 receptors (Q99720 whole entry): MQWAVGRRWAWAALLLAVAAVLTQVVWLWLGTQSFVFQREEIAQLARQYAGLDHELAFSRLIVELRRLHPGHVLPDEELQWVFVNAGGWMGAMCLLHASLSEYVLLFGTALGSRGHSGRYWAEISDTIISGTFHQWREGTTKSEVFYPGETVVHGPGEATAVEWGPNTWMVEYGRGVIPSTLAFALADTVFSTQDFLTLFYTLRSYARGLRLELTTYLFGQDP
Chain of σ1 (Q99720 whole entry): as above

CN(C)CC1CCOC1(c1ccccc1)c1ccccc1.Cl (centres unmarked) [A2-73, 1-(2,2-diphenyltetrahydrofuran-3-yl)-N,N-dimethylmethanamine hydrochloride]
Aβ25-35-induced endogenous Aβ1-42 seeding ([1]; reported): decreasing | results of Examples 1 through 6 (seizure prophylaxis) ([2]; A2-73 substituted for A19-144): similarly effective | IC50 [3]: 5.1 µM | IC50 [4]: 8 µM | selectivity for the σ1 subtype [5]: better selectivity for the σ1 subtype | biotransformation of AV2-73 to main metabolite AV19-144 ([6]; after oral administration): rapid and extensive biotransformation | IC50 [7]: 3.3 to 5.2 µM | anti-amnesic and neuroprotective effect against amyloid toxicity [8]: effective in pre- and post-protection | affinity for σ2 sites [9]: no affinity

CNCC1CCOC1(c1ccccc1)c1ccccc1.Cl (centres unmarked) [A19-144, 1-(2,2-diphenyltetrahydrofuran-3-yl)-N-methylmethanamine hydrochloride]
Aβ25-35-induced P-Akt decrease and P-GSK-3β increase ([1]; Lahmy et al. 2013): blocked | hyperphosphorylation of Tau on physiological (AT-8) and pathological (AT-100) epitopes ([1]; in the dose-range tested): attenuated | oxidative stress, caspases induction, cellular loss and learning and memory deficits ([1]; mice one week after injection of oligomeric Aβ25-35 (Villard et al. 2011)): attenuating | neuroprotection against amyloid toxicity ([1]; mice, reported): neuroprotective potential | affinity for sigma-1 receptors [10]: low micromolar range | affinity for muscarinic acetylcholine receptors [11]: low micromolar range | seizures per day ([2]; Example 1: person, baseline 6.6 per day, 2.0 mg daily for 5 days, for 8 weeks post dosing): 2.2 per day | seizures per day ([2]; Example 3: person, baseline 6.6 per day, 2.0 mg daily for 5 days, for 8 weeks post dosing): 1.2 per day | seizures per day ([2]; person of Example 1, at 6 months post dosing): 2.2 per day | seizures per day (average) ([2]; person of Example 3, at 6 months post dosing): 1.2 per day | Cmax ([6]; human, oral, across the 10 to 60 mg AV2-73 dose steps, plasma, FIG. 1): 1.31 to 22.3 ng/mL | half-life ([6]; human, oral, across the 10 to 60 mg AV2-73 dose steps, plasma, FIG. 1, read-out: mean terminal elimination half-life t1/2 of AV19-144): 8.56 to 28.7 h | MRT ([6]; human, plasma, oral, after 10 mg AV2-73, FIG. 2): 14.3 h | MRT ([6]; human, plasma, oral, after 60 mg AV2-73, FIG. 2): 42.7 h | lipid peroxidation increase [8, 12]: effective | memory deficits [8, 12]: effective | Aβ25-35-induced lipid peroxidation in the hippocampus [8, 13]: blocks | Aβ25-35-induced memory deficits (spontaneous alternation in the Y maze and passive avoidance response) [8, 13]: blocks | anti-amnesic and neuroprotective effect against amyloid toxicity [8]: effective in pre- and post-protection | Aβ25-35-induced toxicity and learning impairments ([8]; injected repeatedly one week after the peptide): able to reverse
